A short description of assay [1]: Olfactory description of the individual compounds. The note with it: pure compound. The source says:
The olfactory descriptions of the individual compounds are as follows: […]

Assay [2] is described as follows: Diffusivity test (Petri dish 50 cm in front of the test subject, intensity rating). As to conditions: scale 1-9 (1=odorless to 9=very strong); 0.5 g in Petri dish, 50 cm from test subject, 20-25° C. The source says:
0.5 g of the odiferous substances to be tested are each weighed in a Petri dish and sealed with the lid. The Petri dish is placed 50 cm in front of the test subject (the distance is marked on the table before the test commences).
The lid is then removed from the Petri dish and a stopwatch is simultaneously started by the test subject. The test subject stops the time immediately they perceive the odor. The test subject assesses the intensity of the sample on a scale of 1=odorless to 9=very strong. The stop time and the intensity are noted on the test sheet.
Each sample is evaluated by the test subject three times. In order to be certain that the result is not distorted, all windows and doors must be shut. The room is at normal temperature (20-25° C.). […] As a rule a minimum of 8 participants evaluate the sample.

Assay [3] in a line: Threshold value in air (odor perception threshold, sample bag with gas stream). As to conditions: equilibrium approximately 18 hours at ambient temperature; as a rule 8 test subjects. The protocol:
The odiferous substance to be tested is evaporated in a defined sampling system and then assessed sensorially with regard to the perception threshold. The sampling system comprises the sample bag and a gas stream outlet. A defined quantity of the desired odiferous substance is squirted into the bag. The equilibrium time after filling with the sample is approximately 18 hours at ambient temperature; then the content of the bag is presented to the test subject by means of a constant gas stream. At the first discernable olfactory impression a response button is pressed. The odor threshold concentration is achieved when in the next dilution stage the olfactory impression is confirmed by repeated pressing of the response button. The concentration of the sample is increased between the previous and the next samples by a factor of 2.
The assessment of the threshold value in air is measured against a standard and as a rule 8 test subjects take part in the sensorial evaluation. The participants have no anosmia in respect of the samples to be investigated.

Assay [4] is described as follows: Olfactory evaluation of perfume oils with and without 4-decyl pyridine dosed into products. The source says:
The composition with 4-n-decyl pyridine also has a fresher radiance overall.
Furthermore, the composition as a whole appears to be more harmonious and rounded.

The source of these data is US8865634B2, “4-alkyl substituted pyridines as odiferous substances” (Symrise AG, priority 2008, dated 2014).

As for `CCCCCCCCCCCCc1ccncc1` [4-n-dodecyl pyridine], the olfactory description entry in assay [1] is on record as “Marine (watery) note, reminiscent of seaweed”.

With `CCCCCCCCc1ccncc1` [4-n-octyl pyridine, 4-octyl pyridine], the olfactory description entry in assay [1] was “very intensive marine (watery) odor with an ozone note”.

As for `CC(C)=CCCC(C)=CCCc1ccncc1` [Maritima ®, 4-(4,8-dimethyl-3,7-nonadienyl)-pyridine, reference compound], the Diffusivity in assay [2] was 3.4. In assay [3], the “Threshold value in air” value came to 0.155 ppm.

For the compound `CCCCCCCCCCCc1ccncc1` [4-n-undecyl pyridine, 4-undecyl pyridine], in assay [1], the olfactory description entry is reported as “marine character, combining an aldehyde-like note with slight echoes of mandarin”.

With `CCCCCCCCCc1ccncc1` [4-n-nonyl pyridine, 4-nonyl pyridine], the olfactory description result in assay [1] was “distinctive odor of the sea”.

For `CCCCCCCCCCc1ccncc1` [4-decyl pyridine], the olfactory description result in assay [1] was “valuable marine character prized and sought after by perfumists”. In assay [2], this compound returned a Diffusivity of 8.1. Moreover, the “olfactory effect in perfume oil” value is reported as “intensifies the transparent fresh head note” in assay [4] (0.001% in perfume oil F2, 12% perfume oil in ethanol (fine fragrance)); “extreme intensification of the marine-mossy note” in assay [4] (0.005% in perfume oil A2, 0.3% perfume oil in all-purpose cleaner, versus A1); “boosts (intensifies) the watery-fresh head note of the perfume oil composition” in assay [4] (0.02% in perfume oil D2, 0.5% perfume oil in shower gel); “intensifies (at a dosing of 0.5% of the perfume oil in the shampoo) the fruity peach/apricot character” in assay [4] (0.05% in perfume oil S2, 0.5% perfume oil in shampoo); “enormous intensification of the fresh characteristic” in assay [4] (0.07% in perfume oil C2, 1.2% perfume oil in soap, versus C1); “greatly increases the sought-after violet character” in assay [4] (1.0% in perfume oil W2, 0.6% perfume oil in fabric conditioner). Further, the “olfactory effect in perfume oil (booster effect)” value in assay [4] (0.01% in perfume oil P2, 0.3% perfume oil in washing powder, versus P1) is “intensification of the lily of the valley and the fruity notes to a quite exceptional extent”. In assay [3], the “Threshold value in air” value was determined as 0.014 ppm.
